Experimental findings from PMC6934184, “Selective DNA-PKcs inhibition extends the therapeutic index of localized radiotherapy and chemotherapy” (The Journal of Clinical Investigation, 2019) are described below.

The structures appear in SMILES notation.

In this experiment the target is T1, FLT1 (VEGFR1) (Homo sapiens, UniProt P17948).
T1 construct: purchased Thermo Fisher Scientific (Life Technologies) SelectScreen
In words: SelectScreen Z'LYTE. The class given is biochemical. The method in brief:
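Percent values come from Thermo SelectScreen profiling of NU5455, combining activity and binding assays. CSF1R was run in Z'LYTE format at Km app ATP, and CAMK1 in Adapta format with ATP listed at 10.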

T1 sequence (P17948 27-1338): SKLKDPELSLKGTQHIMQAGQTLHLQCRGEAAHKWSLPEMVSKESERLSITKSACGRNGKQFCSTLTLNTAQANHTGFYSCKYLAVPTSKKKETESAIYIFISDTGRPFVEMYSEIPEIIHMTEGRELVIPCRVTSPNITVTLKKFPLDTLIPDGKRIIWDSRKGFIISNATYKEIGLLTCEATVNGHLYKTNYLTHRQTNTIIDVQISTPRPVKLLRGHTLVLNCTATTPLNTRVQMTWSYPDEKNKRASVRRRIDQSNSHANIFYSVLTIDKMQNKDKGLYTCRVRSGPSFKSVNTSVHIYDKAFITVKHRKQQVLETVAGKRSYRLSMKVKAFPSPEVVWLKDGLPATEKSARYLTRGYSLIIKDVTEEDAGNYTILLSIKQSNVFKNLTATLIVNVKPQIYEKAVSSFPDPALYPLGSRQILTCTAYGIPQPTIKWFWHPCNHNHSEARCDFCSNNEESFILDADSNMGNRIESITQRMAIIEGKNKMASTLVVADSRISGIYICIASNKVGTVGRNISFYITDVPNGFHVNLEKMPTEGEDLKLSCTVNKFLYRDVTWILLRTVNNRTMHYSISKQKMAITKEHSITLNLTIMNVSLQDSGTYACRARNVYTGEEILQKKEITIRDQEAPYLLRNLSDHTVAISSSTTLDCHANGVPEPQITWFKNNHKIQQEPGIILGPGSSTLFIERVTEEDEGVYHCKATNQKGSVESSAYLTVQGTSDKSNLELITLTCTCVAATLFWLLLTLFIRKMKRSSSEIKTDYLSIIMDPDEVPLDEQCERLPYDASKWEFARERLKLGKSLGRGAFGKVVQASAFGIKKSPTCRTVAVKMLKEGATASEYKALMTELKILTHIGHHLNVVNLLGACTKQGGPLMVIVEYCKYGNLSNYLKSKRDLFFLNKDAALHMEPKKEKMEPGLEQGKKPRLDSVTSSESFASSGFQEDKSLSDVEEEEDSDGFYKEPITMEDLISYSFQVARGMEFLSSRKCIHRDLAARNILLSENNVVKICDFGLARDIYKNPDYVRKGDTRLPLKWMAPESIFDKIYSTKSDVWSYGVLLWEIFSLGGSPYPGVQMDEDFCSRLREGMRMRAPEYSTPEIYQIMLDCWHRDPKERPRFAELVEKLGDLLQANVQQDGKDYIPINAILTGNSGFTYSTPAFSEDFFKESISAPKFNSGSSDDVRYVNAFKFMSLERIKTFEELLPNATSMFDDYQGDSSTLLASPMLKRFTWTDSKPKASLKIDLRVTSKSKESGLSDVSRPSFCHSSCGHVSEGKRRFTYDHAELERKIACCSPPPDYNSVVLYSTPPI

For `CN(C(=O)CN1CCOCC1)c1ccc2sc3c(-c4cccc5c(=O)cc(N6CC7CCC(C6)O7)oc45)cccc3c2c1` [NU5455], at 1 µM the inhibition was 6.5%.
